Measured values reported in US12612427B2, “Aryl glucoside derivative, preparation method therefor and application thereof” (Shanghai Zheye Biotechnology Co. Ltd., priority 2020, dated 2026).

Columns and labels:
[1] = Lipid solubility and water solubility; assay type: physicochemical; details: compared with the compound of Example 5
[2] = target: T1, human SGLT1 (Homo sapiens, UniProt P13866); assay: hSGLT1 inhibitor activity experiment 2: 2-NBDG uptake by HEK293 cells stably expressing human SGLT1; assay type: cell-based; details: for IC50: 2-NBDG uptake, HEK293 stably expressing human SGLT1, read-out: SGLT1 Inhibitory Activity
T1 construct: expressed in transfected cells
T1 sequence (P13866 1-664): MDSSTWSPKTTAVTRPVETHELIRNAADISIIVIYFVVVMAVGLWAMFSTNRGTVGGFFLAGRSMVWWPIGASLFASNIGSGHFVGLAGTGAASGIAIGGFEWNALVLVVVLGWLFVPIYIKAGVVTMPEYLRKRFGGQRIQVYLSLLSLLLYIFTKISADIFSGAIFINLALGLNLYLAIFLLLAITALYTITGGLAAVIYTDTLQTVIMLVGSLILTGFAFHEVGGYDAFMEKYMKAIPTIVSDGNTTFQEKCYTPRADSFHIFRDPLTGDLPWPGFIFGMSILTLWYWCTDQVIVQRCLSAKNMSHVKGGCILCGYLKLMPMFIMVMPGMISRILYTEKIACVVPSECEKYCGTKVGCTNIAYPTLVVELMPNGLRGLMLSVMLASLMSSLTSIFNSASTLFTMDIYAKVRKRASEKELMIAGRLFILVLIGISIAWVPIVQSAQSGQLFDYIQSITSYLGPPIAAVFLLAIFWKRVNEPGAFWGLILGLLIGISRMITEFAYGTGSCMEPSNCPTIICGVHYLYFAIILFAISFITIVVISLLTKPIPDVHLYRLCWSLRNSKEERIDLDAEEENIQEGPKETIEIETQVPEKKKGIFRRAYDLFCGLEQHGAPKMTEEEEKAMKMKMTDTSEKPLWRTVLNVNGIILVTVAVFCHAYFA
Protocol: Inhibitory activity testing was performed with reference to a similar method described in document [Acta Pharmaceutica Sinica 2017, 52 (6): 897-903; Nature Protocols (2007), 2(3), 753-762; Journal of Biochemical and Biophysical Methods (2005), 64(3), 207-215; Diabetes Technology & Therapeutics (2011), 13(7), 743-775].
In this experiment, the in vitro activity assay was evaluated using the uptake of 2-NBDG (2-Deoxy-2-[(7-nitro-2,1,3-benzoxadiazol-4-yl)amino]-D-glucose, CAS NO: 186689-07-6) by human embryonic kidney epithelial cells (HEK293, stably expressing human SGLT1), and the SGLT1 inhibitory activity of the target compound was determined by measuring its half-maximal inhibitory concentration (IC50).
HEK293 cells that can stably express human SGLT1 gene were inoculated into a 96-well clear-bottom black plate containing DMEM medium. The cells were incubated at 37° C., 5% CO2 in a cell incubator. The medium in the 96-well plate was aspirated, and the plate was treated with low-glucose serum-free DMEM medium, and washed once with non-specific uptake buffer and once with Na^+-dependent uptake buffer. Uptake buffer containing test compound was added to each well of cells, followed by uptake buffer containing 2-NBDG for glucose uptake, and the cell plate was incubated at 37° C., 5% CO2. The compounds were gradiently diluted. The uptake reaction was stopped by removing the culture medium, and after washing the cells with ice-cold uptake buffer, the washing solution was removed. The cells were lysed by adding NaOH, and the content of 2-NBDG in the cells was detected by a fluorescence microplate reader. The protein concentration of the lysate was measured by BCA method, the uptake of 2-NBDG was quantified by fluorescence intensity/protein content, and the obtained data were analyzed using GraphPad Prism to determine the median inhibitory concentration (IC50) of the compound to be tested.

[3] = test system: SD rats; assay: Oral glucose tolerance test (OGTT) after continuous administration in rats for 14 days; assay type: in vivo, rat; details: for blood sugar level of rats (OGTT): 0.009 mg/kg oral gavage, 14 days, OGTT on day 15; for loose stools in the experimental animals: rats, within 48 hours before and after the experiment
Protocol: • Experimental animals: SPF male SD rats; • Compound preparation: an appropriate amount of the compounds of Example 1, Example 2, Example 9, Example 10, and Example 17 were weighed, and uniformly suspended with an appropriate amount of 0.5% CMC-Na solution; • Preparation of glucose solution: an appropriate amount of glucose powder was weighed and dissolved with an appropriate amount of pure water; • Dosage and method of administration: 0.009 mg/kg, oral gavage.
Experimental process: the animals were fed a normal diet with consecutive administration for 14 days, and the glucose tolerance test was performed on day 15, blood glucose was detected before administration (−30 min), before giving glucose (0 min), and 10, 30, 60, and 120 min after giving glucose solution, and the defecation of animals was observed.

[4] = Pharmacokinetic study in rats; assay type: in vivo, rat; details: 10 mg/kg, oral gavage, 0-24 hours
Protocol: 5. Pharmacokinetic Study in Rats • Experimental animals: SPF male SD rats; • Dosage and method of administration: 10 mg/kg, oral gavage. • Research compound: Dapagliflozin, the compound of Example 9, the compound of Example 10, the compound of Example 17, and the comparative compound 6;
Test method: Before administration (0), and 1, 4, 8, and 24 hours after administration, 0.2 ml of blood was collected from orbital venous plexus, anticoagulated with heparin, plasma was collected, and the blood drug concentration was determined.

Row | Structure (SMILES) | lipid solubility [1] | water solubility [1] | activity of inhibiting SGLT1 (in words) [2] | IC50 [2] [nM] | blood sugar level of rats (OGTT) [3] | loose stools in the experimental animals [3] | drug concentration in plasma [4]
1 | CS[C@H]1O[C@@H](c2ccc(C)c(Cc3ccc(CCCC(=O)NC(C)(C)C(=O)NCCN(C)CC(=O)N(C)Cc4cn(C5CC5)nn4)cc3)c2)[C@H](O)[C@@H](O)[C@@H]1O | better | better | – | – | – | – | –
2 | CS[C@H]1O[C@@H](c2ccc(C)c(Cc3ccc(CCCC(=O)NC(C)(C)C(=O)NCCN(C)CC(=O)N4CCCC4)cc3)c2)[C@H](O)[C@@H](O)[C@@H]1O [Example 1] | – | – | significant activity of inhibiting SGLT1 | 0.78 | significantly reduce the blood sugar level | no loose stools were observed | –
3 | CS[C@H]1O[C@@H](c2ccc(C)c(Cc3ccc(CCCC(=O)NC(C)(C)C(=O)NCCN(C)CC(=O)N(C)C)cc3)c2)[C@H](O)[C@@H](O)[C@@H]1O [Example 2] | – | – | significant activity of inhibiting SGLT1 | 1.12 | significantly reduce the blood sugar level | no loose stools were observed | –
4 | CS[C@H]1O[C@@H](c2ccc(C)c(Cc3ccc(CCCC(=O)NC(C)(C)C(=O)NCCN(C)CC(=O)N4CCN(C)CC4)cc3)c2)[C@H](O)[C@@H](O)[C@@H]1O [Example 3] | – | – | significant activity of inhibiting SGLT1 | 0.93 | – | – | –
5 | CS[C@H]1O[C@@H](c2ccc(C)c(Cc3ccc(CCCC(=O)NC(C)(C)C(=O)N4CCN(CC(=O)N5CCCC5)CC4)cc3)c2)[C@H](O)[C@@H](O)[C@@H]1O [Example 4] | – | – | significant activity of inhibiting SGLT1 | 0.87 | – | – | –
6 | C#CCN(CCNC(=O)C(C)(C)NC(=O)CCCc1ccc(Cc2cc([C@@H]3O[C@H](SC)[C@@H](O)[C@H](O)[C@H]3O)ccc2C)cc1)CC(=O)N1CCCC1 [Example 9] | – | – | significant activity of inhibiting SGLT1 | 0.53 | significantly reduce the blood sugar level | no loose stools were observed | did not reach the detection limit
7 | C#CCN(C)C(=O)CN1CCN(C(=O)C(C)(C)NC(=O)CCCc2ccc(Cc3cc([C@@H]4O[C@H](SC)[C@@H](O)[C@H](O)[C@H]4O)ccc3C)cc2)CC1 [Example 17] | – | – | significant activity of inhibiting SGLT1 | 0.49 | significantly reduce the blood sugar level | no loose stools were observed | did not reach the detection limit
